Where “and” joins values, the source holds several entries; their conditions need not be identical. Identical values can stand only once.
Legend:
[1] = test system: DU-145; experiment: Growth inhibition of human DU-145 cells assessed as growth percentage at 0.1 uM incubated for 48 hrs by sulforhodamine B assay relative to control; type: functional; conditions: read-out: Activity
[2] = test system: BT-549; experiment: Growth inhibition of human BT-549 cells incubated for 48 hrs by sulforhodamine B assay; type: functional
[3] = test system: HCT-15; experiment: Growth inhibition of human HCT-15 cells assessed as growth percentage at 0.01 uM incubated for 48 hrs by sulforhodamine B assay relative to control; type: functional; conditions: read-out: Activity
[4] = test system: KM12; experiment: Growth inhibition of human KM12 cells assessed as growth percentage at 0.1 uM incubated for 48 hrs by sulforhodamine B assay relative to control; type: functional; conditions: read-out: Activity
[5] = test system: NCI-H322M; experiment: Growth inhibition of human NCI-H322M cells assessed as growth percentage at 10 uM incubated for 48 hrs by sulforhodamine B assay relative to control; type: functional; conditions: read-out: Activity
[6] = test system: MCF7; experiment: Antiproliferative activity against human MCF7 cells assessed as cell growth inhibition at 10 uM measured after 72 hrs by MTT assay relative to control; type: functional; conditions: read-out: GI
[7] = test system: BT-549; experiment: Growth inhibition of human BT-549 cells assessed as growth percentage at 100 uM incubated for 48 hrs by sulforhodamine B assay relative to control; type: functional; conditions: read-out: Activity
[8] = test system: UACC-62; experiment: Growth inhibition of human UACC-62 cells assessed as growth percentage at 100 uM incubated for 48 hrs by sulforhodamine B assay relative to control; type: functional; conditions: read-out: Activity
[9] = test system: OVCAR-4; experiment: Growth inhibition of human OVCAR-4 cells assessed as growth percentage at 100 uM incubated for 48 hrs by sulforhodamine B assay relative to control; type: functional; conditions: read-out: Activity
[10] = test system: NCI-H322M; experiment: Growth inhibition of human NCI-H322M cells incubated for 48 hrs by sulforhodamine B assay; type: functional; conditions: for CC50: 48 h, read-out: LC50 (the source's name)
[11] = test system: A498; experiment: Growth inhibition of human A498 cells assessed as growth percentage at 0.1 uM incubated for 48 hrs by sulforhodamine B assay relative to control; type: functional; conditions: read-out: Activity
[12] = test system: NCI/ADR-RES; experiment: Growth inhibition of human NCI/ADR-RES cells assessed as growth percentage at 0.1 uM incubated for 48 hrs by sulforhodamine B assay relative to control; type: functional; conditions: read-out: Activity
[13] = test system: A549; experiment: Growth inhibition of human A549/ATCC cells assessed as growth percentage at 0.01 uM incubated for 48 hrs by sulforhodamine B assay relative to control; type: functional; conditions: read-out: Activity
[14] = test system: IGROV-1; experiment: Growth inhibition of human IGROV-1 assessed as growth percent at 0.01 uM incubated for 48 hrs by sulforhodamine B assay relative to control; type: functional; conditions: read-out: Activity
[15] = test system: KM12; experiment: Growth inhibition of human KM12 cells assessed as growth percentage at 1 uM incubated for 48 hrs by sulforhodamine B assay relative to control; type: functional; conditions: read-out: Activity
[16] = test system: COLO 205; experiment: Growth inhibition of human COLO 205 cells assessed as growth percentage at 10 uM incubated for 48 hrs by sulforhodamine B assay relative to control; type: functional; conditions: read-out: Activity
[17] = test system: SN12C; experiment: Growth inhibition of human SN12C cells assessed as growth percentage at 100 uM incubated for 48 hrs by sulforhodamine B assay relative to control; type: functional; conditions: read-out: Activity
[18] = test system: UACC-257; experiment: Growth inhibition of human UACC-257 cells assessed as growth percentage at 10 uM incubated for 48 hrs by sulforhodamine B assay relative to control; type: functional; conditions: read-out: Activity
[19] = test system: NCI-H522; experiment: Growth inhibition of human NCI-H522 cells incubated for 48 hrs by sulforhodamine B assay; type: functional
[20] = test system: NCI-H23; experiment: Growth inhibition of human NCI-H23 cells assessed as growth percentage at 1 uM incubated for 48 hrs by sulforhodamine B assay relative to control; type: functional; conditions: read-out: Activity
[21] = test system: NCI-H23; experiment: Growth inhibition of human NCI-H23 cells assessed as growth percentage at 0.01 uM incubated for 48 hrs by sulforhodamine B assay relative to control; type: functional; conditions: read-out: Activity
[22] = test system: BT-549; experiment: Growth inhibition of human BT-549 cells assessed as growth percentage at 10 uM incubated for 48 hrs by sulforhodamine B assay relative to control; type: functional; conditions: read-out: Activity
[23] = test system: SF-295; experiment: Growth inhibition of human SF-295 cells assessed as growth percentage at 10 uM incubated for 48 hrs by sulforhodamine B assay relative to control; type: functional; conditions: read-out: Activity
[24] = molecular target: Fibroblast growth factor receptor 1 (Homo sapiens) (UniProt P11362); experiment: Inhibition of human FGFR1 at 10 uM using myelin basic protein as substrate incubated for 40 mins in presence of [gamma33P]ATP by scintillation counting method relative to control
Sequence of Fibroblast growth factor receptor 1 (Homo sapiens) (P11362 22-822 limits assumed): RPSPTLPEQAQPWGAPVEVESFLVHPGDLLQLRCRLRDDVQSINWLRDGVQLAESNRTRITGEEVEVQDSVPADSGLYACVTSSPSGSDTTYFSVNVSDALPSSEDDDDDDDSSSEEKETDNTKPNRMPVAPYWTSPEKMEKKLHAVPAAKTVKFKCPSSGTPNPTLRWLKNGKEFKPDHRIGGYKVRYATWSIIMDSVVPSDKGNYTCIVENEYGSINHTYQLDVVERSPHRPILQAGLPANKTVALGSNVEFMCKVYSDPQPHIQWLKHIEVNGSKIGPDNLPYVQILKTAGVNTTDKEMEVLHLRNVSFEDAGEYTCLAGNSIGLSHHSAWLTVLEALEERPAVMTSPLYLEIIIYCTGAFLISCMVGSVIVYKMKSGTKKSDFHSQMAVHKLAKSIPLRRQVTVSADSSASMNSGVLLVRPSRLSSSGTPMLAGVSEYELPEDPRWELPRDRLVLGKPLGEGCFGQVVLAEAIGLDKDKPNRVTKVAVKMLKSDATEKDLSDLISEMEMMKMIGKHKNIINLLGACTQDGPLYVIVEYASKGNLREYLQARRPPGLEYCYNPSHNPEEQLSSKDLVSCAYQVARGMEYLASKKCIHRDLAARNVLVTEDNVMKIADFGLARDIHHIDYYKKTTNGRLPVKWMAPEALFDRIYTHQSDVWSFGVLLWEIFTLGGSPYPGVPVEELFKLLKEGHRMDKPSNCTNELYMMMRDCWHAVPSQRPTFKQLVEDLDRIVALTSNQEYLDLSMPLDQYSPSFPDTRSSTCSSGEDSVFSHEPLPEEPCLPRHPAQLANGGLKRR

[25] = test system: M14; experiment: Growth inhibition of human M14 cells assessed as growth percentage at 10 uM incubated for 48 hrs by sulforhodamine B assay relative to control; type: functional; conditions: read-out: Activity
[26] = test system: MOLT-4; experiment: Growth inhibition of human MOLT-4 cells assessed as growth percentage at 0.1 uM incubated for 48 hrs by sulforhodamine B assay relative to control; type: functional; conditions: read-out: Activity
[27] = test system: HCT-116; experiment: Growth inhibition of human HCT-116 cells assessed as growth percentage at 0.1 uM incubated for 48 hrs by sulforhodamine B assay relative to control; type: functional; conditions: read-out: Activity
[28] = test system: OVCAR-3; experiment: Growth inhibition of human OVCAR-3 cells assessed as growth percentage at 1 uM incubated for 48 hrs by sulforhodamine B assay relative to control; type: functional; conditions: read-out: Activity
[29] = test system: SW-620; experiment: Growth inhibition of human SW-620 cells assessed as growth percentage at 100 uM incubated for 48 hrs by sulforhodamine B assay relative to control; type: functional; conditions: read-out: Activity
[30] = test system: SW-620; experiment: Growth inhibition of human SW-620 cells assessed as growth percentage at 0.01 uM incubated for 48 hrs by sulforhodamine B assay relative to control; type: functional; conditions: read-out: Activity
[31] = test system: HOP-92; experiment: Growth inhibition of human HOP-92 cells assessed as growth percentage at 1 uM incubated for 48 hrs by sulforhodamine B assay relative to control; type: functional; conditions: read-out: Activity
[32] = test system: 786-0; experiment: Growth inhibition of human 786-0 cells assessed as growth percentage at 0.1 uM incubated for 48 hrs by sulforhodamine B assay relative to control; type: functional; conditions: read-out: Activity
[33] = test system: NCI-H23; experiment: Growth inhibition of human NCI-H23 cells assessed as growth percentage at 10 uM incubated for 48 hrs by sulforhodamine B assay relative to control; type: functional; conditions: read-out: Activity
[34] = test system: HCT-116; experiment: Growth inhibition of human HCT-116 cells assessed as growth percentage at 100 uM incubated for 48 hrs by sulforhodamine B assay relative to control; type: functional; conditions: read-out: Activity
[35] = test system: MDA-MB-468; experiment: Growth inhibition of human MDA-MB-468 cells assessed as growth percentage at 100 uM incubated for 48 hrs by sulforhodamine B assay relative to control; type: functional; conditions: read-out: Activity
[36] = test system: NCI-H226; experiment: Growth inhibition of human NCI-H226 cells assessed as growth percentage at 0.1 uM incubated for 48 hrs by sulforhodamine B assay relative to control; type: functional; conditions: read-out: Activity
[37] = test system: NCI-H226; experiment: Growth inhibition of human NCI-H226 cells incubated for 48 hrs by sulforhodamine B assay; type: functional; conditions: for CC50: read-out: LC50 (the source's name); for TGI: NCI-H226
[38] = test system: RXF 393; experiment: Growth inhibition of human RXF 393 cells assessed as growth percentage at 100 uM incubated for 48 hrs by sulforhodamine B assay relative to control; type: functional; conditions: read-out: Activity
[39] = test system: COLO 205; experiment: Growth inhibition of human COLO 205 cells incubated for 48 hrs by sulforhodamine B assay; type: functional
[40] = read-out: LC50 (the source's name)

Molecule `Nc1nc2[nH]c(CN3CCN(c4cc(Cl)cc(Cl)c4)CC3)c(CN3CCN(c4cc(Cl)cc(Cl)c4)CC3)c2c(=O)[nH]1` has a growth at 0.1 µM [1] of 109%, a GI50 [2] of 1.72 µM and a TGI [2] of 3.76 µM. The growth at 0.01 µM [3] was 98%, the growth at 0.1 µM [4] was 105% and the growth at 10 µM [5] was 64.3%. The inhibition of growth at 10 µM [6] was 82.5%, the growth at 100 µM [7] was -37% and the growth at 100 µM [8] was -49%. The growth at 100 µM [9] was -82%, the CC50 [10] was 73.2 µM and 7.32 µM and the growth at 0.1 µM [11] was 82%. The growth at 0.1 µM [12] was 97%, the growth at 0.01 µM [13] was 97% and the growth at 0.01 µM [14] was 104%. For the same molecule, the growth at 1 µM [15] was 99%, the growth at 10 µM [16] was 10.9% and the growth at 100 µM [17] was -35%. For the same molecule, the growth at 10 µM [18] was 97.6%, the GI50 [19] was 1.74 µM and the TGI [19] was 3.44 µM. It also gave a growth at 1 µM [20] of 103%, a growth at 0.01 µM [21] of 104% and a growth at 10 µM [22] of 87%. The growth at 10 µM [23] was 98.4%, the inhibition [24] was -8.65% and the growth at 10 µM [25] was 79.7%. For the same molecule, the growth at 0.1 µM [26] was 104%, the growth at 0.1 µM [27] was 99% and the growth at 1 µM [28] was 98%. For the same molecule, the growth at 100 µM [29] was -79%, the growth at 0.01 µM [30] was 96% and the growth at 1 µM [31] was 65%. The growth at 0.1 µM [32] was 93%, the growth at 10 µM [33] was 85.7% and the growth at 100 µM [34] was -59%. For the same molecule, the growth at 100 µM [35] was -44%, the growth at 0.1 µM [36] was 89% and the GI50 ([37]; 48 h) was 1.58 µM and 15.8 µM. For the same molecule, the CC50 ([37]; 48 h) was over 100 µM, the TGI ([37]; Homo sapiens) was 5.37 µM and the growth at 100 µM [38] was -28%. It also gave a GI50 [39] of 1.69 µM and a TGI [39] of 3.56 µM.
For `CCCCCCCC(=O)Nc1nc2[nH]c(CN3CCN(Cc4cccc(F)c4)CC3)c(CN3CCN(Cc4cccc(F)c4)CC3)c2c(=O)[nH]1`, the growth at 0.1 µM [1] was 101%, the GI50 [2] was 1.53 µM and the TGI [2] was 2.92 µM. It also gave a CC50 [2, 40] of 5.58 µM, a growth at 0.01 µM [3] of 98% and a growth at 0.1 µM [4] of 93%. For the same molecule, the growth at 10 µM [5] was -41.2%, the inhibition of growth at 10 µM [6] was 94.8% and the growth at 100 µM [7] was -91%. For the same molecule, the growth at 100 µM [8] was -90%, the growth at 100 µM [9] was -91% and the GI50 ([10]; Homo sapiens, NCI-H322M) was 1.46 µM. For the same molecule, the TGI ([10]; Homo sapiens, NCI-H322M) was 2.92 µM, the CC50 ([10]; Homo sapiens, NCI-H322M) was 5.83 µM and the growth at 0.1 µM [11] was 76%. It also gave a growth at 0.1 µM [12] of 95%, a growth at 0.01 µM [13] of 98% and a growth at 0.01 µM [14] of 98%. For the same molecule, the growth at 1 µM [15] was 43%, the growth at 10 µM [16] was -90.9% and the growth at 100 µM [17] was -69%. For the same molecule, the growth at 10 µM [18] was -18.5%, the GI50 [19] was 1.91 µM and the LC50 [19] was 6.88 µM. It also gave a TGI [19] of 3.62 µM, a growth at 1 µM [20] of 92% and a growth at 0.01 µM [21] of 98%. For the same molecule, the growth at 10 µM [22] was 29%, the growth at 10 µM [23] was -69.2% and the inhibition [24] was 54.5%. It also gave a growth at 10 µM [25] of -91.3%, a growth at 0.1 µM [26] of 95% and a growth at 0.1 µM [27] of 93%. It also gave a growth at 1 µM [28] of 44%, a growth at 100 µM [29] of -69% and a growth at 0.01 µM [30] of 96%. The growth at 1 µM [31] was 59%, the growth at 0.1 µM [32] was 92% and the growth at 10 µM [33] was -53.8%. For the same molecule, the growth at 100 µM [34] was -69%, the growth at 100 µM [35] was -75% and the growth at 0.1 µM [36] was 95%. For the same molecule, the TGI ([37]; Homo sapiens) was 3.84 µM, the GI50 ([37]; Homo sapiens, NCI-H226, 48 h) was 1.84 µM and the CC50 ([37]; Homo sapiens, NCI-H226, 48 h) was 8.04 µM. The growth at 100 µM [38] was -95%, the GI50 [39] was 1.4 µM and the TGI [39] was 2.82 µM. For the same molecule, the CC50 [39, 40] was 5.68 µM.

Reference: ChEMBL document CHEMBL4673219, “Novel 5,6-disubstituted pyrrolo[2,3-d]pyrimidine derivatives as broad spectrum antiproliferative agents: Synthesis, cell based assays, kinase profile and molecular docking study” (Bioorg Med Chem, 2018)
